Assay results published in patent US20220288052A1, “COMPOUND FOR COMBINATION TREATMENT” (priority 2019, published 2022).
Where two headings read alike, the source gives them in different places.

Legend:
5-HT transporter = 5-HT transporter (Rattus norvegicus, UniProt P31652); assay: ^3H-uptake rat, 5-HT transporter; format: biochemical
From the text: (§1) Compound (I) has been characterized as a monoamine reuptake inhibitor, based on the profile in a series of functional assays (Table 2).

NA transporter [1] = molecular target: NA transporter (Homo sapiens, UniProt P23975); assay: ^3H-uptake human, NA transporter; format: biochemical
NA transporter (Homo sapiens, UniProt P23975), sequence (P23975 whole entry): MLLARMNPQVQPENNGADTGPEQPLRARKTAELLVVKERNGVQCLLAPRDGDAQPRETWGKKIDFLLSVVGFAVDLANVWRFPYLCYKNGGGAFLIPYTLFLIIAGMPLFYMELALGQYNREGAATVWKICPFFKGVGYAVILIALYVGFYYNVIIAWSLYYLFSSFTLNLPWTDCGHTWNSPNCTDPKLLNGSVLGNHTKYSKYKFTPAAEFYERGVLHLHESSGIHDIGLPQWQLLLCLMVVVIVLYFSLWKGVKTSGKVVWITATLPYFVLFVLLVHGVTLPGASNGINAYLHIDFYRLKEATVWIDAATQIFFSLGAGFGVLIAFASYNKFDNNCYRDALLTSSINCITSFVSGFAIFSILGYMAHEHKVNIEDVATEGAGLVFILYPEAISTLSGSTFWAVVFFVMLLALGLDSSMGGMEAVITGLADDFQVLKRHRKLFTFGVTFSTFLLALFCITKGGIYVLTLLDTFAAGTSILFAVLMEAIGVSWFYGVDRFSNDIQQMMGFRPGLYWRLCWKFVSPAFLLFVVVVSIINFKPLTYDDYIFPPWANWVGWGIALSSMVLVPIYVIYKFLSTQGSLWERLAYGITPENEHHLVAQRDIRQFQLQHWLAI
From the text: as §1

NA transporter [2] = molecular target: T1, NA transporter (Mus musculus, UniProt O55192); assay: Ex vivo NA uptake in mice
T1 construct: from tissue; host or cells: tissue of dosed animals (ex vivo)
T1 sequence (O55192 whole entry): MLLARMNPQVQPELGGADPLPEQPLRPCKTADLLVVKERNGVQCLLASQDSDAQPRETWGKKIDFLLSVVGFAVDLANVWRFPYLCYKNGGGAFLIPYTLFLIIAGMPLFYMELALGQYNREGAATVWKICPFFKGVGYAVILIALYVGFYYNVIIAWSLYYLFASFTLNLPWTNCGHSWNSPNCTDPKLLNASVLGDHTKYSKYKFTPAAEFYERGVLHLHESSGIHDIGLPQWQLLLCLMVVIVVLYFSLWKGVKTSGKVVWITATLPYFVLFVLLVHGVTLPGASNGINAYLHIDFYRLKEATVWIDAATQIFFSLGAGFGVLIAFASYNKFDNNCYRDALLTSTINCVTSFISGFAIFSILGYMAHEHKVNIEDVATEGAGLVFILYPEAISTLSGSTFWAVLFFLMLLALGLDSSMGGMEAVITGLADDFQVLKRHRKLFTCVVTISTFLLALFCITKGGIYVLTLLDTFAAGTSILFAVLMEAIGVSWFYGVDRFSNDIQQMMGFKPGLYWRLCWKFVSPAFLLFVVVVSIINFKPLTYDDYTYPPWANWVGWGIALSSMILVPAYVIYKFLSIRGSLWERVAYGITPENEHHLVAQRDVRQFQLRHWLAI
Experimental: The in vivo receptor occupancy (RO %) of compound (I) was calculated at the MED values (DOSE) in mFST and in the mouse motility test using the formula RO % (estimated)=DOSE 100/(ED50+DOSE). The calculations were based on ED50 values in ex vivo uptake of 5-HT and NA and WIN in vivo binding.

[3] = system: nialamide pre-treated mice; assay: Nialamide-induced 5-HT syndrome (m5-HT); format: in vivo, mouse
Experimental: 50 mg/kg nialamide s.c. t=120 min. Compound (I) p.o. t=0. n=4.
Compound (I) was tested in a classical test often used to measure the ability of a compound to block the reuptake of 5-HT in vivo: nialamide-induced 5-HT syndrome (m5-HT). In addition, compound (I) was tested in a locomotor activity paradigm (mLA) as a measure of its ability to block the reuptake of DA and therefore induce motility. It is generally accepted that >60% DA transporter blockade is needed to induce increased motility in this test.

[4] = Bioavailability study in mouse; format: in vivo
From the text: Compound (I) is absorbed quickly.

[5] = Tissue distribution after single dose, rat; format: in vivo; details: sc; for AUC(0-t): male, Wistar, rat 5 mg/kg s.c., read-out: AUC(0-24 h); for half-life: rat, male Wistar rats 5 mg/kg s.c., read-out: T½ (converted)
Experimental: Compound (I) was dosed to male Wistar rats 5 mg/kg s.c. Plasma was taken 0.5, 1, 2, 4, 6 and 24 post dose. Brain, liver and lung were taken 1, 4 and 24 hours post dose.
The plasma profile was again essentially the same as for the single dose study showing the same T½ of 0.8 h. AUC and T½ were calculated for plasma and organs, even though the data are very sparse for the organs.

[6] = Exposure and tissue distribution after 14 days repeat dosing, rat; format: in vivo; details: for concentration at 2 h / Kp at 2 h: rat, sc, 2 h post last dose
Experimental: Single time point data is available from two 14 days repeat dose studies in mice and rats dosed to both sexes. The three low doses were performed together as one study and the top dose was performed at another occasion as a satellite study.
Samples were taken 2 h post last dose.
Plasma, brain and liver were taken 2 h post last dose.

[7] = Metabolic stability in liver microsomes, guinea pig; format: in vitro ADME
Experimental: (§2) The metabolic stability of compound (I) was tested in liver microsomes from all in house available species at 1 and 5 μM. One metabolite of 16 mass units higher than parent, was found in all incubations, except with human liver microsomes.

[8] = Metabolic stability in liver microsomes, human; format: in vitro ADME
Experimental: as §2

CYP 2C9 = CYP 2C9 (Homo sapiens, UniProt P11712); assay: CYP450 inhibition, cocktail of selective substrates, 2C9; format: in vitro ADME; details: CYP 2C9, Tolbutamide to 4-hydroxytolbutamide; read-out: IC50 of compound (I)
CYP 2C9, sequence (P11712 whole entry): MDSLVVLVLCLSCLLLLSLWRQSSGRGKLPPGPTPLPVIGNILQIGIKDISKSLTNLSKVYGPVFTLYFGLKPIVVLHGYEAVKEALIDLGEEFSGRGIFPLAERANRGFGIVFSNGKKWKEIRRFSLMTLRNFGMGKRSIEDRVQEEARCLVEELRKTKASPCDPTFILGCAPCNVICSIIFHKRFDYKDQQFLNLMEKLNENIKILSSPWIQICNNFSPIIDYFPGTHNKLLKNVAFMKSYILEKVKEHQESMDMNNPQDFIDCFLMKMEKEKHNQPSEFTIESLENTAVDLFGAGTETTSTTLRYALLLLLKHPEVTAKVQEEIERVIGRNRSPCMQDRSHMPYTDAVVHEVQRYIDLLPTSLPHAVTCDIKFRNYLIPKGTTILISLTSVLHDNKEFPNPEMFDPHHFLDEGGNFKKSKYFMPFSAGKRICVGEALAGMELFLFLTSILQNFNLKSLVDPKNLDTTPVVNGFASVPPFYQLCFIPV
Experimental: Compound (I) was tested for CYP450 inhibition using a cocktail of selective substrates. […] This might be addressed later in a clinical study.

mice erectile tissue = assay: Penile flow by laser doppler in mice; format: in vivo, mouse
Experimental: FIG. 33: Flow laser doppler raw data from mice erectile function (top), and average flow changes (EF) in mice erectile tissue (bottom). The increase in penile flow induced by compound (I) (1 mg/kg) was highly significant and increased 4.99 times, n=2.
A laser doppler flow probe was positioned in situ in mice erectile tissue for measurement of penile basal flow in the absence and the presence of compound (I).

[9] = beagle, dog, in vivo, iv
Experimental: Data presented are mean±s.e. mean where n=4 for all time points, excluding D2t7 where n=3, D3t7 where n=2, and D4t7 and D4t26 where no data was available. Animals received 1, 3, 10, and 30 mg/kg compound (I) as 4 intravenous infusions (starting at t0, D1t30, D2t30 and D3t30, respectively). Each dose was administered over 5 min, using an infusion pump, and the dose volume for each treatment was 2 ml/kg, with the exception of the fourth dose which was 3 ml/kg.
Data presented are mean±s.e. mean where n=4 for all time points, excluding D4t7 and D4t26 where no data was available. Animals received 1, 3, 10, and 30 mg/kg compound (I) as 4 intravenous infusions (starting at t0, D1t30, D2t30 and D3t30, respectively). Each dose was administered over 5 min, using an infusion pump, and the dose volume for each treatment was 2 ml/kg, with the exception of the fourth dose which was 3 ml/kg.

[10] = female, NMRI, plasma, intravenous, 10 mg/kg
[11] = female, NMRI, plasma, po, 10 mg/kg p.o.

5-HT transporter, sequence (P31652 whole entry): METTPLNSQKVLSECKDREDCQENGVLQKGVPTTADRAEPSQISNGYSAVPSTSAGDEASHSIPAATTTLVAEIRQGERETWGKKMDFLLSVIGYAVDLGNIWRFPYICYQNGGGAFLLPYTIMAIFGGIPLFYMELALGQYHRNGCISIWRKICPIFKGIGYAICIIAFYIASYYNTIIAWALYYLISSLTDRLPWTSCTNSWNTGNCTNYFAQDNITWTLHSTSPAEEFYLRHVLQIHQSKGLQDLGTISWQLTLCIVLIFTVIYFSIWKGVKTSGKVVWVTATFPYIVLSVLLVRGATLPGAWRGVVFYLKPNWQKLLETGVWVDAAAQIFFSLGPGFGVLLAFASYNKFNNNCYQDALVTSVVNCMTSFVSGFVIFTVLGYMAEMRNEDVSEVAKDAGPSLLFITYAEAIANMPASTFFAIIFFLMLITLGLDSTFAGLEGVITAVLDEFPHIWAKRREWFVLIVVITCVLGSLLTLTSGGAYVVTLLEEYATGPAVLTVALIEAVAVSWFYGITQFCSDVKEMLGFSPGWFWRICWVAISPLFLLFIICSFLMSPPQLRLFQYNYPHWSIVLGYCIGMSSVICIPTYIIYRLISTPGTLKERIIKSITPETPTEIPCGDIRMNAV

For `O=c1ccc2ccc(O[C@@H]3C[C@H]4CC[C@@H](C3)N4)cc2o1` [Compound (I), exo-7-(8-aza-bicyclo[3.2.1]oct-3-yloxy)-chromen-2-one], the IC50 (5-HT transporter) was 0.45 nM, the IC50 (NA transporter [1]) was 46 nM and the Ki (NA transporter [1]) was 50.1 nM. For the same molecule, the Human transporter ratio (NA transporter [1]; NA versus 5-HT) was 26, the “NA RO %” value (NA transporter [2]; estimated at MED in mFST (NMRI mice), DOSE 1 mg/kg) was <1.9% and the “NA RO %” value (NA transporter [2]; estimated at MED in mMotility, DOSE 10 mg/kg) was <17%. For the same molecule, the ED50 (NA transporter [2]; mouse, po) was > 50 mg/kg, the MED ([3]; m5-HT, p.o. 0 min) was 0.1 mg/kg and the “Potency in 5-HT syndrome relative to the reference compounds tested” value ([3]; nialamide pre-treated mice) was 100 times. For the same molecule, the T½ i.v. ([4]; 10 mg/kg i.v., 10 mg/kg) was 48 min, the “AUC(0-∞) p.o.” value ([4]; 10 mg/kg p.o., 10 mg/kg) was 2308 ng·h/mL and the Vd [4, 10] was 3.5 L/kg. It also gave a clearance [4, 10] of 71.7 mL/min/kg, an AUC(0-inf) ([4]; female, NMRI, plasma, iv, 10 mg/kg, 10 mg/kg i.v., read-out: AUC(0-∞) i.v.) of 2310 ng·h/mL and a half-life ([4]; female, NMRI, plasma, iv, 10 mg/kg, 10 mg/kg i.v., read-out: T½ i.v. (converted)) of 36 min. It also gave a Cmax [4, 11] of 1090 ng/mL, a Tmax [4, 11] of 30 min and an AUC(0-inf) ([4]; female, NMRI, plasma, po, 10 mg/kg, 10 mg/kg p.o., read-out: AUC(0-∞) p.o.) of 1720 ng·h/mL. The half-life ([4]; female, NMRI, plasma, po, 10 mg/kg, 10 mg/kg p.o., read-out: T½ p.o. (converted)) was 66 min, the bioavailability ([4]; plasma, oral, female NMRI mice, 10 mg/kg p.o. vs 10 mg/kg i.v.) was 74% and the AUC(0-t) ([5]; Brain) was 3190 ng·h/mL. For the same molecule, the AUC(0-t) ([5]; Liver) was 493 ng·h/mL, the AUC(0-t) ([5]; Lung) was 17600 ng·h/mL and the AUC(0-t) ([5]; Plasma) was 805 ng·h/mL. It also gave a half-life ([5]; Brain) of 216 min, a half-life ([5]; Lung) of 156 min and a half-life ([5]; Plasma) of 48 min. For the same molecule, the concentration at 2 h ([6]; Wistar, brain, Female rats, 5 mg/kg s.c. 14 days, read-out: Brain concentration) was 468 ng/g, the concentration at 2 h ([6]; Wistar, brain, Female rats, 10 mg/kg s.c. 14 days, read-out: Brain concentration) was 1020 ng/g and the concentration at 2 h ([6]; Wistar, brain, Female rats, 15 mg/kg s.c. 14 days, read-out: Brain concentration) was 1580 ng/g. For the same molecule, the concentration at 2 h ([6]; Wistar, brain, Female rats, 25 mg/kg s.c. 14 days, read-out: Brain concentration) was 2080 ng/g, the concentration at 2 h ([6]; Wistar, brain, Male rats, 5 mg/kg s.c. 14 days, read-out: Brain concentration) was 519 ng/g and the concentration at 2 h ([6]; Wistar, brain, Male rats, 10 mg/kg s.c. 14 days, read-out: Brain concentration) was 1380 ng/g. The concentration at 2 h ([6]; Wistar, brain, Male rats, 15 mg/kg s.c. 14 days, read-out: Brain concentration) was 1950 ng/g, the concentration at 2 h ([6]; Wistar, brain, Male rats, 25 mg/kg s.c. 14 days, read-out: Brain concentration) was 2580 ng/g and the Kp at 2 h ([6]; Wistar, brain/plasma, Female rats, 5 mg/kg s.c. 14 days, read-out: Brain/plasma ratio) was 7. It also gave a Kp at 2 h ([6]; Wistar, brain/plasma, Female rats, 10 mg/kg s.c. 14 days, read-out: Brain/plasma ratio) of 7, a Kp at 2 h ([6]; Wistar, brain/plasma, Female rats, 15 mg/kg s.c. 14 days, read-out: Brain/plasma ratio) of 6 and a Kp at 2 h ([6]; Wistar, brain/plasma, Male rats, 5 mg/kg s.c. 14 days, read-out: Brain/plasma ratio) of 7. The Kp at 2 h ([6]; Wistar, brain/plasma, Male rats, 10 mg/kg s.c. 14 days, read-out: Brain/plasma ratio) was 6, the Kp at 2 h ([6]; Wistar, brain/plasma, Male rats, 15 mg/kg s.c. 14 days, read-out: Brain/plasma ratio) was 5 and the Kp at 2 h ([6]; Wistar, in vivo, Female rats, 5 mg/kg s.c. 14 days, read-out: Liver/plasma ratio) was 5. For the same molecule, the Kp at 2 h ([6]; Wistar, in vivo, Female rats, 10 mg/kg s.c. 14 days, read-out: Liver/plasma ratio) was 5, the Kp at 2 h ([6]; Wistar, in vivo, Female rats, 15 mg/kg s.c. 14 days, read-out: Liver/plasma ratio) was 5 and the Kp at 2 h ([6]; Wistar, in vivo, Male rats, 5 mg/kg s.c. 14 days, read-out: Liver/plasma ratio) was 3. The Kp at 2 h ([6]; Wistar, in vivo, Male rats, 10 mg/kg s.c. 14 days, read-out: Liver/plasma ratio) was 3, the Kp at 2 h ([6]; Wistar, in vivo, Male rats, 15 mg/kg s.c. 14 days, read-out: Liver/plasma ratio) was 2 and the concentration at 2 h ([6]; Wistar, liver, Female rats, 5 mg/kg s.c. 14 days, read-out: Liver concentration) was 319 ng/g. For the same molecule, the concentration at 2 h ([6]; Wistar, liver, Female rats, 10 mg/kg s.c. 14 days, read-out: Liver concentration) was 738 ng/g, the concentration at 2 h ([6]; Wistar, liver, Female rats, 15 mg/kg s.c. 14 days, read-out: Liver concentration) was 1520 ng/g and the concentration at 2 h ([6]; Wistar, liver, Male rats, 5 mg/kg s.c. 14 days, read-out: Liver concentration) was 259 ng/g. The concentration at 2 h ([6]; Wistar, liver, Male rats, 10 mg/kg s.c. 14 days, read-out: Liver concentration) was 737 ng/g, the concentration at 2 h ([6]; Wistar, liver, Male rats, 15 mg/kg s.c. 14 days, read-out: Liver concentration) was 921 ng/g and the concentration at 2 h ([6]; Wistar, plasma, Female rats, 5 mg/kg s.c. 14 days, read-out: Plasma concentration) was 67 ng/mL. It also gave a concentration at 2 h ([6]; Wistar, plasma, Female rats, 10 mg/kg s.c. 14 days, read-out: Plasma concentration) of 149 ng/mL, a concentration at 2 h ([6]; Wistar, plasma, Female rats, 15 mg/kg s.c. 14 days, read-out: Plasma concentration) of 281 ng/mL and a concentration at 2 h ([6]; Wistar, plasma, Male rats, 5 mg/kg s.c. 14 days, read-out: Plasma concentration) of 77 ng/mL. For the same molecule, the concentration at 2 h ([6]; Wistar, plasma, Male rats, 10 mg/kg s.c. 14 days, read-out: Plasma concentration) was 242 ng/mL, the concentration at 2 h ([6]; Wistar, plasma, Male rats, 15 mg/kg s.c. 14 days, read-out: Plasma concentration) was 398 ng/mL and the Kp at 2 h ([6]; brain/plasma, Female rats, 25 mg/kg s.c. 14 days, read-out: Brain/plasma ratio) was 5. For the same molecule, the Kp at 2 h ([6]; brain/plasma, Male rats, 25 mg/kg s.c. 14 days, read-out: Brain/plasma ratio) was 5, the Kp at 2 h ([6]; in vivo, Female rats, 25 mg/kg s.c. 14 days, read-out: Liver/plasma ratio) was 6 and the Kp at 2 h ([6]; in vivo, Male rats, 25 mg/kg s.c. 14 days, read-out: Liver/plasma ratio) was 3. For the same molecule, the concentration at 2 h ([6]; liver, Female rats, 25 mg/kg s.c. 14 days, read-out: Liver concentration) was 2310 ng/g, the concentration at 2 h ([6]; liver, Male rats, 25 mg/kg s.c. 14 days, read-out: Liver concentration) was 1560 ng/g and the concentration at 2 h ([6]; plasma, Female rats, 25 mg/kg s.c. 14 days, read-out: Plasma concentration) was 412 ng/mL. For the same molecule, the concentration at 2 h ([6]; plasma, Male rats, 25 mg/kg s.c. 14 days, read-out: Plasma concentration) was 512 ng/mL, the “Linearity of kinetics after repeat dosing” value ([6]; rats, 5-25 mg/kg s.c. 14 days, 5% glucose) was “slight tendency to supra-linear kinetics” and the “Stability at 1 μM” value [7] was 98%. For the same molecule, the “Stability at 5 μM” value [7] was 82%, the “Metabolite (mass units higher than parent)” value [8] was “None” and the “Stability at 1 μM” value [8] was 94%. For the same molecule, the “Stability at 5 μM” value [8] was 93%, the IC50 (CYP 2C9) was > 100000 nM and the “Increase in penile flow” value (mice erectile tissue; 1 mg/kg, n=2) was 4.99 times. The Penile flow (mice erectile tissue; infusion of 1 mg/kg) was “markedly increased”, the “Average conc. of compound (I) at 5 min (max), total plasma” value (shortened to “Average conc. of compound (I) at 5 min”) ([9]; 1 mg/kg) was 631 ng/mL and the “Average conc. of compound (I) at 5 min” value ([9]; 3 mg/kg) was 2120 ng/mL. For the same molecule, the “Average conc. of compound (I) at 5 min” value ([9]; 10 mg/kg) was 6560 ng/mL and the “Average conc. of compound (I) at 5 min” value ([9]; 30 mg/kg) was 15000 ng/mL.
